Source: patent US20090221599A1, “PHTHALAZINONE PYRAZOLE DERIVATIVES, THEIR MANUFACTURE AND USE AS PHARMACEUTICAL AGENTS” (priority 2006, published 2009)

These compounds were tested on HCT 116 cells (assay: CellTiter-Glo assay in HCT 116 cells). Conditions: HCT 116 human colon carcinoma cells, 5 days, CellTiter-Glo cell viability.
Type: cell-based
Experimental: The CellTiter-Glo™ Luminescent Cell Viability Assay (Promega) is a homogeneous method of determining the number of viable cells in culture based on quantitation of the ATP present, which signals the presence of metabolically active cells.
HCT 116 cells (human colon carcinoma, ATCC-No. CC1-247) were cultivated in RPMI 1640 medium with GlutaMAX™ I (Invitrogen, Cat-No. 61870-010), 2.5% Fetal Calf Serum (FCS, Sigma Cat-No. F4135 (FBS)); 100 Units/ml penicillin/100 μg/ml streptomycin (=Pen/Strep from Invitrogen Cat. No. 15140). For the assay the cells were seeded in 384 well plates, 1000 cells per well, in the same medium. The next day the test compounds were added in various concentrations ranging from 30 μM to 0.0015 μM (10 concentrations, 1:3 diluted). After 5 days the CellTiter-Glo™ assay was done according to the instructions of the manufacturer (CellTiter-Glo™ Luminescent Cell Viability Assay, from Promega). In brief: the cell-plate was equilibrated to room temperature for approximately 30 minutes and than the CellTiter-Glo™ reagent was added. The contents were carefully mixed for 15 minutes to induce cell lysis. After 45 minutes the luminescent signal was measured in Victor 2, (scanning multiwell spectrophotometer, Wallac).
1st. day: • Medium: RPMI 1640 with GlutaMAX™ I (Invitrogen, Cat-No. 61870), 5% FCS (Sigma Cat.-No. F4135), Pen/Strep (Invitrogen, Cat No. 15140). • HCT116 (ATCC-No. CC1-247): 1000 cells in 60 μl per well of 384 well plate (Greiner 781098, μClear-plate white) • After seeding incubate plates 24 h at 37° C., 5% CO2 2nd. day: Induction (Treatment with compounds, 10 concentrations):
In order to achieve a final concentration of 30 μM as highest concentration 3.5 μl of 10 mM compound stock solution were added directly to 163 μl media. Then step e) of the dilution procedure described below, was followed.
In order to achieve the second highest to the lowest concentrations, a serial dilution with dilution steps of 1:3 was followed according to the procedure (a-d) as described here below: • a) for the second highest concentration add 10 μl of 10 mM stock solution of compound to 20 μl dimethylsulfoxide (DMSO) • b) dilute 8× 1:3 (always 10 μl to 20 μl DMSO) in this DMSO dilution row (results in 9 wells with concentrations from 3333.3 μM to 0.51 μM) • c) dilute each concentration 1:47.6 (3.5 μl compound dilution to 163 μl media) • d) add 10 μl of every concentration to 60 μl media in the cell plate resulting in final concentration of DMSO: 0.3% in every well and resulting in 10 final concentration of compounds ranging from 30 μM to 0.0015 μM. • Each compound is tested in triplicate. • Incubate 120 h (5 days) at 37° C., 5% CO2
• Add 30 μl CellTiter-Glo™ Reagent (prepared from CellTiter-Glo™ Buffer and CellTiter-Glo™ Substrate (lyophilized) purchased from Promega) per well, • shake 15 minutes at room temperature • incubate further 45 minutes at room temperature without shaking
• Victor 2 scanning multiwell spectrophotometer (Wallac), Luminescence mode (0.5 sec/read, 477 nm) • Determine IC50 using a non-linear curve fit (XLfit software (ID Business Solution Ltd., Guilford, Surrey, UK))

IC50 [nM] | SMILES
92 | CSCCN(C)c1ccc2c(Nc3cc(C)[nH]n3)nn(C(C)C)c(=O)c2c1 [Example B-1, 2-Isopropyl-7-[methyl-(2-methylsulfanyl-ethyl)-amino]-4-(5-methyl-1H-pyrazol-3-ylamino)-2H-phtalazin-1-one]

Same assay, conditions: Homo sapiens, HCT-116, 120 h, HCT 116 human colon carcinoma cells, 5 days, CellTiter-Glo cell viability

IC50 [nM] | SMILES
791 | Cc1cc(Nc2nn(C(C)C)c(=O)c3cc(OCCCS(=O)(=O)N4CCOCC4)ccc23)n[nH]1 [Example A-4, 2-Isopropyl-4-(5-methyl-1H-pyrazol-3-ylamino)-7-[3-(morpholine-4-sulfonyl)-propoxy]-2H-phthalazin-1-one]
50 to 500 | Cc1cc(Nc2nn(C(C)C)c(=O)c3cc(N(C)CCN(C)C)ccc23)n[nH]1 [Example B-3, 7-[(2-Dimethylamino-ethyl)-methyl-amino]-2-isopropyl-4-(5-methyl-1H-pyrazol-3-ylamino)-2H-phthalazin-1-one]
50 to 500 | Cc1cc(Nc2nn(C(C)C)c(=O)c3cc(OCCS(C)(=O)=O)ccc23)n[nH]1 [Example A-7, 2-Isopropyl-7-(2-methanesulfonyl-ethoxy)-4-(5-methyl-1H-pyrazol-3-ylamino)-2H-phthalazin-1-one]
50 to 500 | Cc1cc(Nc2nn(C(C)C)c(=O)c3cc(COCc4cccnc4)ccc23)n[nH]1 [Example E-2, 2-Isopropyl-4-(5-methyl-1H-pyrazol-3-ylamino)-7-(pyridin-3-ylmethoxymethyl)-2H-phthalazin-1-one]
216 | CSCCOc1ccc2c(Nc3cc(C)[nH]n3)nn(C(C)C)c(=O)c2c1 [Example A-1, 2-Isopropyl-4-(5-methyl-1H-pyrazol-3-ylamino)-7-(2-methylsulfanyl-ethoxy)-2H-phthalazin-1-one]
50 to 500 | COCCOc1ccc2c(Nc3cc(C)[nH]n3)nn(C(C)C)c(=O)c2c1 [Example A-2, 2-Isopropyl-7-(2-methoxy-ethoxy)-4-(5-methyl-1H-pyrazol-3-ylamino)-2H-phthalazin-1-one]
500 to 2500 | COCC(=O)N(C)c1ccc2c(Nc3cc(C)[nH]n3)nn(Cc3cc(F)cc(F)c3)c(=O)c2c1 [Example G-2, N-[3-(3,5-Difluoro-benzyl)-1-(5-methyl-1H-pyrazol-3-ylamino)-4-oxo-3,4-dihydro-phthalazin-6-yl]-2-methoxy-N-methyl-acetamide]
50 to 500 | Cc1cc(Nc2nn(C(C)C)c(=O)c3cc(OCCCS(=O)(=O)N(C)C)ccc23)n[nH]1 [Example A-3, 3-[3-Isopropyl-1-(5-methyl-1H-pyrazol-3-ylamino)-4-oxo-3,4-dihydro-phthalazin-6-yloxy]-propane-1-sulfonic acid dimethylamide]
50 to 500 | Cc1cc(Nc2nn(C(C)C)c(=O)c3cc(COCC4CC4)ccc23)n[nH]1 [Example E-1, 7-Cyclopropylmethoxymethyl-2-isopropyl-4-(5-methyl-1H-pyrazol-3-ylamino)-2H-phthalazin-1-one]
50 to 500 | COCC(=O)N(C)c1ccc2c(Nc3cc(C)[nH]n3)nn(C(C)C)c(=O)c2c1 [Example G-1, N-[3-Isopropyl-1-(5-methyl-1H-pyrazol-3-ylamino)-4-oxo-3,4-dihydro-phthalazin-6-yl]-2-methoxy-N-methyl-acetamide]
50 to 500 | CSCc1ccc2c(Nc3cc(C)[nH]n3)nn(C(C)C)c(=O)c2c1 [Example F-1, 2-Isopropyl-4-(5-methyl-1H-pyrazol-3-ylamino)-7-methylsulfanylmethyl-2H-phthalazin-1-one]
500 to 2500 | Cc1cc(Nc2nn(C(C)C)c(=O)c3cc(CS(C)(=O)=O)ccc23)n[nH]1 [Example F-2, 2-Isopropyl-7-methanesulfonylmethyl-4-(5-methyl-1H-pyrazol-3-ylamino)-2H-phthalazin-1-one]
296 | CSCCSc1ccc2c(Nc3cc(C)[nH]n3)nn(C(C)C)c(=O)c2c1 [Example C-1, 2-Isopropyl-4-(5-methyl-1H-pyrazol-3-ylamino)-7-(2-methylsulfanyl-ethylsulfanyl)-2H-phthalazin-1-one]
500 to 2500 | Cc1cc(Nc2nn(C(C)C)c(=O)c3cc(COCCN4CCOCC4)ccc23)[nH]n1 [Example E-3, 2-Isopropyl-4-(5-methyl-2H-pyrazol-3-ylamino)-7-(2-morpholin-4-yl-ethoxymethyl)-2H-phthalazin-1-one]
500 to 2500 | Cc1cc(Nc2nn(C(C)C)c(=O)c3cc(S(=O)(=O)CCS(C)(=O)=O)ccc23)n[nH]1 [Example C-2, 2-Isopropyl-7-(2-methanesulfonyl-ethanesulfonyl)-4-(5-methyl-1H-pyrazol-3-ylamino)-2H-phthalazin-1-one]
50 to 500 | COCCN(C)c1ccc2c(Nc3cc(C)[nH]n3)nn(C(C)C)c(=O)c2c1 [Example B-2, 2-Isopropyl-7-[(2-methoxy-ethyl)-methyl-amino]-4-(5-methyl-1H-pyrazol-3-ylamino)-2H-phthalazin-1-one]

What follows are compounds tested against T1, mutant Aurora A kinase (Homo sapiens, UniProt O14965) (assay: IC50 determination for inhibitors of Aurora A (ELISA, GST-Histone H3 substrate)). Conditions: 30 μM ATP, 40 minutes, read-out: IC50 Aurora A kinase inhibition.
T1 sequence (O14965 1-403): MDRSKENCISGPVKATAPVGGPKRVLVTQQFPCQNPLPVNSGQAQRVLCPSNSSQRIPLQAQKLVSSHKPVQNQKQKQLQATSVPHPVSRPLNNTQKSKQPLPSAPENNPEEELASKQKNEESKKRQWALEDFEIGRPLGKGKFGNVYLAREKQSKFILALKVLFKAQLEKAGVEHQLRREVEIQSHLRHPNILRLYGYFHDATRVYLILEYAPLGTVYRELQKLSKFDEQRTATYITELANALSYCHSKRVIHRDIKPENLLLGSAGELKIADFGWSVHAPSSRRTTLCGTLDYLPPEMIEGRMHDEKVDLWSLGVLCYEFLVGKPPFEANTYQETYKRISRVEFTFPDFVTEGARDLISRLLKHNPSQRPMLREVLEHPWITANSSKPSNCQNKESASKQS
Type: biochemical
Experimental: Aurora A is a serine threonine kinase involved in spindle assembly and chromosome segregation.
The assay is a typically ELISA-type assay where substrate (GST-Histone H3) is coupled to the assay-plate and is phosphorylated by the kinase. Phosphorylation is detected by a mouse anti-Phosphopeptid mAb and an HRP-labeled anti-mouse pAb. The assay is validated for IC50-determination.
Kinase activities were measured by Enzyme-Linked Immunosorbent Assay (ELISA): Maxisorp 384-well plates (Nunc) were coated with recombinant fusion protein comprising residues 1-15 of Histone H3 fused to the N-terminus of Glutathione-S-Transferase. Plates were then blocked with a solution of 1 mg/mL I-block (Tropix cat# T2015—highly purified form of casein) in phosphate-buffered saline. Kinase reactions were carried out in the wells of the ELISA plate by combining an appropriate amount of mutant Aurora A kinase with test compound and 30 μM ATP. The reaction buffer was 10× Kinase Buffer (Cell Signaling cat #9802) supplemented with 1 μg/mL I-block. Reactions were stopped after 40 minutes by addition of 25 mM EDTA. After washing, substrate phosphorylation was detected by addition of anti-phospho-Histone H3 (Ser 10) 6G3 mAb (Cell Signaling cat #9706) and sheep anti-mouse pAb-HRP (Amersham cat# NA931V), followed by calorimetric development with TMB (3,3′,5,5′-tetramethylbenzidine from Kirkegaard & Perry Laboratories). After readout of the absorbance, IC50 values were calculated using a non-linear curve fit (XLfit software (ID Business Solution Ltd., Guilford, Surrey, UK)).

IC50 [nM] | SMILES
10 | Cc1cc(Nc2nn(C(C)C)c(=O)c3cc(OCCCS(=O)(=O)N4CCOCC4)ccc23)n[nH]1 [Example A-4, 2-Isopropyl-4-(5-methyl-1H-pyrazol-3-ylamino)-7-[3-(morpholine-4-sulfonyl)-propoxy]-2H-phthalazin-1-one]
22 | Cc1cc(Nc2nn(C(C)C)c(=O)c3cc(OCCN(C)C)ccc23)n[nH]1 [Example A-5, 7-(2-Dimethylamino-ethoxy)-2-isopropyl-4-(5-methyl-1H-pyrazol-3-ylamino)-2H-phthalazin-1-one]
16 | Cc1cc(Nc2nn(C(C)C)c(=O)c3cc(COCCN4CCOCC4)ccc23)[nH]n1 [Example E-3, 2-Isopropyl-4-(5-methyl-2H-pyrazol-3-ylamino)-7-(2-morpholin-4-yl-ethoxymethyl)-2H-phthalazin-1-one]
10 | Cc1cc(Nc2nn(C(C)C)c(=O)c3cc(S(=O)(=O)CCS(C)(=O)=O)ccc23)n[nH]1 [Example C-2, 2-Isopropyl-7-(2-methanesulfonyl-ethanesulfonyl)-4-(5-methyl-1H-pyrazol-3-ylamino)-2H-phthalazin-1-one]
